Values of other authors as cited in patent EP4732851A9, “LINKER, ANTIBODY-DRUG CONJUGATE, AND PREPARATION METHOD THEREFOR” (Fudan University, priority 2024, dated 2025).

Settings: background statement; cited from earlier work

Substance: PNU-159682
- activity compared to MMDX and doxorubicin: 3000 fold
